# Test results as given in BigSolDB 2.1.
compound,measurement,setting,value
O=C(O)Cn1cnnn1,solubility (mole fraction),"in acetone, 288.23 K",0.0964
same,solubility (mole fraction),"in acetone, 293.32 K",0.105
same,solubility (mole fraction),"in acetone, 298.24 K",0.115
same,solubility (mole fraction),"in acetone, 303.31 K",0.125
same,solubility (mole fraction),"in acetone, 308.18 K",0.136
same,solubility (mole fraction),"in acetone, 313.26 K",0.149
same,solubility (mole fraction),"in acetone, 318.27 K",0.162
same,solubility (mole fraction),"in acetone, 323.23 K",0.175
same,solubility (mole fraction),"in ethanol, 283.27 K",0.0517
same,solubility (mole fraction),"in ethanol, 288.17 K",0.0621
same,solubility (mole fraction),"in ethanol, 293.46 K",0.075
same,solubility (mole fraction),"in ethanol, 298.22 K",0.0891
same,solubility (mole fraction),"in ethanol, 303.31 K",0.108
same,solubility (mole fraction),"in ethanol, 308.17 K",0.129
same,solubility (mole fraction),"in ethanol, 313.23 K",0.157
same,solubility (mole fraction),"in ethanol, 318.21 K",0.189
same,solubility (mole fraction),"in ethanol, 323.26 K",0.229
same,solubility (mole fraction),"in ethyl acetate, 288.27 K",0.0121
same,solubility (mole fraction),"in ethyl acetate, 293.28 K",0.0138
same,solubility (mole fraction),"in ethyl acetate, 298.19 K",0.0154
same,solubility (mole fraction),"in ethyl acetate, 303.31 K",0.0173
same,solubility (mole fraction),"in ethyl acetate, 308.22 K",0.0193
same,solubility (mole fraction),"in ethyl acetate, 313.26 K",0.0218
same,solubility (mole fraction),"in ethyl acetate, 318.16 K",0.0246
same,solubility (mole fraction),"in ethyl acetate, 323.21 K",0.0281
same,solubility (mole fraction),"in isopropanol, 288.17 K",0.0282
same,solubility (mole fraction),"in isopropanol, 293.22 K",0.0374
same,solubility (mole fraction),"in isopropanol, 298.26 K",0.0491
same,solubility (mole fraction),"in isopropanol, 303.2 K",0.063
same,solubility (mole fraction),"in isopropanol, 308.21 K",0.0794
same,solubility (mole fraction),"in isopropanol, 313.29 K",0.0985
same,solubility (mole fraction),"in isopropanol, 318.24 K",0.119
same,solubility (mole fraction),"in isopropanol, 323.27 K",0.143
same,solubility (mole fraction),"in methanol, 288.18 K",0.145
same,solubility (mole fraction),"in methanol, 293.29 K",0.155
same,solubility (mole fraction),"in methanol, 298.23 K",0.173
same,solubility (mole fraction),"in methanol, 303.22 K",0.199
same,solubility (mole fraction),"in methanol, 308.24 K",0.233
same,solubility (mole fraction),"in methanol, 313.34 K",0.276
same,solubility (mole fraction),"in methanol, 318.22 K",0.326
same,solubility (mole fraction),"in methanol, 323.19 K",0.383
same,solubility (mole fraction),"in n-butyl acetate, 288.22 K",0.00443
same,solubility (mole fraction),"in n-butyl acetate, 293.3 K",0.00483
same,solubility (mole fraction),"in n-butyl acetate, 298.33 K",0.00552
same,solubility (mole fraction),"in n-butyl acetate, 303.18 K",0.00647
same,solubility (mole fraction),"in n-butyl acetate, 308.22 K",0.00773
same,solubility (mole fraction),"in n-butyl acetate, 313.3 K",0.00931
same,solubility (mole fraction),"in n-butyl acetate, 318.24 K",0.0111
same,solubility (mole fraction),"in n-butyl acetate, 323.28 K",0.0133
same,solubility (mole fraction),"in n-propanol, 288.27 K",0.0312
same,solubility (mole fraction),"in n-propanol, 293.21 K",0.0386
same,solubility (mole fraction),"in n-propanol, 298.23 K",0.0464
same,solubility (mole fraction),"in n-propanol, 303.29 K",0.0557
same,solubility (mole fraction),"in n-propanol, 308.33 K",0.068
same,solubility (mole fraction),"in n-propanol, 313.18 K",0.0839
same,solubility (mole fraction),"in n-propanol, 318.22 K",0.106
same,solubility (mole fraction),"in n-propanol, 323.32 K",0.135
same,solubility (mole fraction),"in water, 283.17 K",0.00729
same,solubility (mole fraction),"in water, 288.31 K",0.0109
same,solubility (mole fraction),"in water, 293.28 K",0.016
same,solubility (mole fraction),"in water, 298.24 K",0.0234
same,solubility (mole fraction),"in water, 303.19 K",0.0348
same,solubility (mole fraction),"in water, 308.3 K",0.0549
same,solubility (mole fraction),"in water, 313.17 K",0.0826
same,solubility (mole fraction),"in water, 318.22 K",0.122
same,solubility (mole fraction),"in water, 323.16 K",0.173
